Measurements as given in ChEMBL document CHEMBL1201862, “PubChem BioAssay data set” (2004).
Activity calls are given as the source filed them.

Tests used:
[1] = target: T1, Fatty acid synthase (Homo sapiens, UniProt P49327); experiment: inhibition of human FAS-TE enzyme activity – biochemical, endpoint fluorescence intensity, uHTS hits, dose response (AID 624327); type: functional;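 note: fluorescence from hydrolysis of an O-methyl fluorescein acyl ester substrate by the enzyme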
[2] = target: T1, Fatty acid synthase; experiment: inhibition of human FAS-TE enzyme activity – biochemical, kinetic fluorescence intensity, dose response (AID 624326); type: functional;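 note: rate of fluorescence rise from hydrolysis of a fluorogenic O-methyl fluorescein ester substrate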
[3] = blockers of CRF-binding protein–CRF-R2 complex – cell-based, uHTS hits, 384-well, dose response (AID 651639); type: functional, Homo sapiens; conditions: read-out: IC50_Mean
[4] = target: T2, Corticotropin-releasing factor receptor 2/Corticotropin-releasing factor-binding protein (Homo sapiens, UniProt P24387+Q13324); experiment: activators of CRF receptor 2 with binding protein – uHTS hits, confirmation (AID 602473); type: functional; conditions: read-out: EC50_Mean
T2 sequence (Q13324 whole entry): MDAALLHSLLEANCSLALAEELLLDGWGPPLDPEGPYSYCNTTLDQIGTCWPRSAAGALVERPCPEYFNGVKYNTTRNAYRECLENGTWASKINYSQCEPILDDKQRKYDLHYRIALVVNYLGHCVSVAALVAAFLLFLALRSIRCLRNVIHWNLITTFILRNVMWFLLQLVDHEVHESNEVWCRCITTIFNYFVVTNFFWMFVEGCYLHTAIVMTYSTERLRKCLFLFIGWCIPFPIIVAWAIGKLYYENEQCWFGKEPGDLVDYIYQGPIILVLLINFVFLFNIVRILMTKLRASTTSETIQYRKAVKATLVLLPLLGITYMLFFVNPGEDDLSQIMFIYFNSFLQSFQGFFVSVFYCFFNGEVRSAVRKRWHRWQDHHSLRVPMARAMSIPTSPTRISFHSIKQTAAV
T2 sequence (P24387 whole entry): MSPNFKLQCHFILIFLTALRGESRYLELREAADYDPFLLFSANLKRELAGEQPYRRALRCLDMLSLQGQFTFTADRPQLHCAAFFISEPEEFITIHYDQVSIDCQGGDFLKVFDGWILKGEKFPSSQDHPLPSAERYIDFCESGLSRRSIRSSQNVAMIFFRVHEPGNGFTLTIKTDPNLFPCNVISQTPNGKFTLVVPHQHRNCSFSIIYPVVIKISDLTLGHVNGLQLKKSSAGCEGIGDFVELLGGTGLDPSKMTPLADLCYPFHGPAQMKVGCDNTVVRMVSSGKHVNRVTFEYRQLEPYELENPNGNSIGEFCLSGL

[5] = target: T2, Corticotropin-releasing factor receptor 2/Corticotropin-releasing factor-binding protein; experiment: Dose Response confirmation of uHTS hits for small molecule antagonists of the CRF-binding protein and CRF-R2 receptor complex.; type: functional; conditions: read-out: IC50_Mean
[6] = system: Streptococcus; experiment: GAS UMAA2166 growth inhibition – luminescence, BacTiterGlo, counter-screen for streptokinase expression inhibitor project, dose response (AID 1915); type: functional, organism-based;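 note: potency for reduction of bacterial viability or growth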
[7] = viability of uninfected HEp-2 cells – cell-based, HTS, cytotoxicity control for RSV inhibitor project, dose response (AID 2410); type: functional; conditions: human respiratory syncytial virus
[8] = target: T3, Streptokinase A (Streptococcus pyogenes serotype M1, UniProt P10520); experiment: viability-normalized secreted streptokinase activity reduction – plasminogen activation absorbance, OD405, dose response (AID 1914); type: functional, Streptococcus pyogenes M1 GAS;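 note: secreted streptokinase activity via plasminogen activation per viability signal from cell pellet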
T3 sequence (P10520 whole entry): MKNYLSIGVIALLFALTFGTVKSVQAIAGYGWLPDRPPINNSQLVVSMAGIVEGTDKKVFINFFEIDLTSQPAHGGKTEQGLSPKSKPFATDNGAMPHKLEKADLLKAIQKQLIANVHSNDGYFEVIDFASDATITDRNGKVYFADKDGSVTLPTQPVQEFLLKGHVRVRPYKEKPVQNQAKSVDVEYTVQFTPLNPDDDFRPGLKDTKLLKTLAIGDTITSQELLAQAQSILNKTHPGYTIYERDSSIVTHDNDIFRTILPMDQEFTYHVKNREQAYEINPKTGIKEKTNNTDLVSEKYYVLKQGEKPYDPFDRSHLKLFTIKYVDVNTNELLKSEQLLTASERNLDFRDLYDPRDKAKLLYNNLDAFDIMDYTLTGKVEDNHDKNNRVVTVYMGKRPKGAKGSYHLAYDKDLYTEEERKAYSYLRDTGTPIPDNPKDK

[9] = system: Streptococcus sp. 'group A'; experiment: Streptococcus pyogenes SK(-)GAS viability under kanamycin – luminescence, BacTiterGlo, confirmation, counter-screen for streptokinase expression inhibitor project, dose response (AID 1900); type: functional, organism-based
[10] = system: Vero; experiment: cells; type: functional; conditions: Chlorocebus sabaeus
[11] = target: T4, DNA repair protein RAD52 homolog (Homo sapiens, UniProt P43351); type: functional, biochemical
T4 sequence (P43351 whole entry): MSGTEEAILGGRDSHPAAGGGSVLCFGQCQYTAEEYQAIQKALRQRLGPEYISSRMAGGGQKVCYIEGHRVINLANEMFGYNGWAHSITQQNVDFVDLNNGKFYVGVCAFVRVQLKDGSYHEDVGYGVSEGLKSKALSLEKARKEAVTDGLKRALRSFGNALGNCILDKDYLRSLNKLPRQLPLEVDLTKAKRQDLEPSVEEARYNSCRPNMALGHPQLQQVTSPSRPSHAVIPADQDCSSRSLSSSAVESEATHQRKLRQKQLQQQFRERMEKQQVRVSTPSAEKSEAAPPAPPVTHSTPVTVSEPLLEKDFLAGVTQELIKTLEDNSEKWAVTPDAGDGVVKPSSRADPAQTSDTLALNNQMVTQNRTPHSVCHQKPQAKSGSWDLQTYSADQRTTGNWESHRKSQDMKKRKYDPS

[12] = target: Estrogen receptor beta (Homo sapiens, UniProt Q92731);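 note: recombinant ER-beta bound to coactivator SRC1 peptide in presence of estradiol agonist; inhibitors block coactivator peptide binding and lower the FRET signal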
Estrogen receptor beta, sequence (Q92731 whole entry): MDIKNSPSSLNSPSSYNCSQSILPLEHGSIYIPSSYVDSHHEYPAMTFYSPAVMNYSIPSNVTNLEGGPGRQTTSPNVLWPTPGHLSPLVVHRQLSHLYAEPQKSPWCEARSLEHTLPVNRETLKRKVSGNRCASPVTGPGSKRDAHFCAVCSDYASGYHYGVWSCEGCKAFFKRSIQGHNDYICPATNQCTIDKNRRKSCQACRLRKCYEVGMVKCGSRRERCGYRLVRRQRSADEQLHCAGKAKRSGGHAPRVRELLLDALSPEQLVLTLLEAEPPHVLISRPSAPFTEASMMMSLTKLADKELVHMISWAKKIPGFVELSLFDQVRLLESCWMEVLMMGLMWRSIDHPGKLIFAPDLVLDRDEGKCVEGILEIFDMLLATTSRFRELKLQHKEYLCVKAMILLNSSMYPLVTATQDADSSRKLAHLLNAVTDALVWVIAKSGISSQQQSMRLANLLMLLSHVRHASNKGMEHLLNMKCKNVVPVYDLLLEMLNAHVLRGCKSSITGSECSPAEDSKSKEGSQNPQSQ

[13] = target: Prothrombin (Homo sapiens, UniProt P00734); experiment: Thrombin 1536 HTS Dose Response Confirmation. [Related pubchem assays: 1046 (Thrombin 1536 HTS; hits were confirmed in this assay)]; type: functional
[14] = target: T5, Heat shock factor protein 1 (Mus musculus, UniProt P38532); experiment: enhancement of HSF1-driven luciferase signal – cell-based, NIH3T3, luminescence, dose retest, confirmation (AID 435004); type: functional;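 note: stress induced by proteasome inhibitor MG132 added 30 min after compound; luciferase reporter driven by HSF1 response element in NIH3T3 cells; actives raise luminescence as potentiators of the MG132 stress response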
T5 sequence (P38532 whole entry): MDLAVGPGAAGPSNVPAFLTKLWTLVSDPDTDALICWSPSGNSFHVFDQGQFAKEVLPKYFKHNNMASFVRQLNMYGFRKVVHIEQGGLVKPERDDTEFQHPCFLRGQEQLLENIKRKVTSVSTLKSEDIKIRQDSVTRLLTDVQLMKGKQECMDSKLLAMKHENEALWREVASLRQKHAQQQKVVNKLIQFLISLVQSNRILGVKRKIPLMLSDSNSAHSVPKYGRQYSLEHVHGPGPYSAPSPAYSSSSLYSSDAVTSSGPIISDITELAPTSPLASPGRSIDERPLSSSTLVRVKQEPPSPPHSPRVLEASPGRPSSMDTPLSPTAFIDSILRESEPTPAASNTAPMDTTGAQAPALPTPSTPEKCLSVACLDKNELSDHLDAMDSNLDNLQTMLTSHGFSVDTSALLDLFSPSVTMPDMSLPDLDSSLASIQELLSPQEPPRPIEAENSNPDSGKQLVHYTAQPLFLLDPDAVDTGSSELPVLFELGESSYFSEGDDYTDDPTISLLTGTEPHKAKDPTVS

[15] = target: Cytochrome P450 2C9 (Homo sapiens, UniProt P11712)
Cytochrome P450 2C9, sequence (P11712 whole entry): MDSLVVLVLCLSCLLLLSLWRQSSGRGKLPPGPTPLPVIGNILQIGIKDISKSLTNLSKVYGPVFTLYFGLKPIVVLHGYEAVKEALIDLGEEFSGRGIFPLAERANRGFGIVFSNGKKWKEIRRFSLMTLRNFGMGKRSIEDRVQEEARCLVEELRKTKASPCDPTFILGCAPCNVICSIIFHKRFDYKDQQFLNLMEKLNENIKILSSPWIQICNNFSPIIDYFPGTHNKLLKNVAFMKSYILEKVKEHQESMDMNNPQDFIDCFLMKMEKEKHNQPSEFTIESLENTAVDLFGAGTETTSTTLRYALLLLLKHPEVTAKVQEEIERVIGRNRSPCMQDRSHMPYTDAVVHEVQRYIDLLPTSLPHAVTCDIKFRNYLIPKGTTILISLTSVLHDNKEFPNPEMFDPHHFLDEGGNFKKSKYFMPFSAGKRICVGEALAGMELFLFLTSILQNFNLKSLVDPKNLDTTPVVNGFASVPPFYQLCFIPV

[16] = target: T6, Cytochrome P450 1A2 (Homo sapiens, UniProt P05177);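 note: PubChem cytochrome P450 panel assay, CYP1A2 panel member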
T6 sequence (P05177 whole entry): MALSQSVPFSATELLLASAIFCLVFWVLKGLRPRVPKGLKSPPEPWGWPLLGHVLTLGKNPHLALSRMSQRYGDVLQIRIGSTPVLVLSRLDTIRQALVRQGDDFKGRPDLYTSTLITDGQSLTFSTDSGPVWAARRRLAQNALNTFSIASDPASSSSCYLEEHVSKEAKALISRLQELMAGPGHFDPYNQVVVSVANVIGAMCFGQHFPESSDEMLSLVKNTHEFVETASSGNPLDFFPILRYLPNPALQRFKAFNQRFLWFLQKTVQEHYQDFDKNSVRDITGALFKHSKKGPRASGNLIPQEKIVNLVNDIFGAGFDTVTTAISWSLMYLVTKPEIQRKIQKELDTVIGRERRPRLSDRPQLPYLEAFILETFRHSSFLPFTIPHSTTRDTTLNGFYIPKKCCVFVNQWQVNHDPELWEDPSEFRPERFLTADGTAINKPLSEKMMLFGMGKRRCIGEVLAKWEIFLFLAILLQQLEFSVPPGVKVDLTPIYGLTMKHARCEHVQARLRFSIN

T1 sequence (P49327 whole entry): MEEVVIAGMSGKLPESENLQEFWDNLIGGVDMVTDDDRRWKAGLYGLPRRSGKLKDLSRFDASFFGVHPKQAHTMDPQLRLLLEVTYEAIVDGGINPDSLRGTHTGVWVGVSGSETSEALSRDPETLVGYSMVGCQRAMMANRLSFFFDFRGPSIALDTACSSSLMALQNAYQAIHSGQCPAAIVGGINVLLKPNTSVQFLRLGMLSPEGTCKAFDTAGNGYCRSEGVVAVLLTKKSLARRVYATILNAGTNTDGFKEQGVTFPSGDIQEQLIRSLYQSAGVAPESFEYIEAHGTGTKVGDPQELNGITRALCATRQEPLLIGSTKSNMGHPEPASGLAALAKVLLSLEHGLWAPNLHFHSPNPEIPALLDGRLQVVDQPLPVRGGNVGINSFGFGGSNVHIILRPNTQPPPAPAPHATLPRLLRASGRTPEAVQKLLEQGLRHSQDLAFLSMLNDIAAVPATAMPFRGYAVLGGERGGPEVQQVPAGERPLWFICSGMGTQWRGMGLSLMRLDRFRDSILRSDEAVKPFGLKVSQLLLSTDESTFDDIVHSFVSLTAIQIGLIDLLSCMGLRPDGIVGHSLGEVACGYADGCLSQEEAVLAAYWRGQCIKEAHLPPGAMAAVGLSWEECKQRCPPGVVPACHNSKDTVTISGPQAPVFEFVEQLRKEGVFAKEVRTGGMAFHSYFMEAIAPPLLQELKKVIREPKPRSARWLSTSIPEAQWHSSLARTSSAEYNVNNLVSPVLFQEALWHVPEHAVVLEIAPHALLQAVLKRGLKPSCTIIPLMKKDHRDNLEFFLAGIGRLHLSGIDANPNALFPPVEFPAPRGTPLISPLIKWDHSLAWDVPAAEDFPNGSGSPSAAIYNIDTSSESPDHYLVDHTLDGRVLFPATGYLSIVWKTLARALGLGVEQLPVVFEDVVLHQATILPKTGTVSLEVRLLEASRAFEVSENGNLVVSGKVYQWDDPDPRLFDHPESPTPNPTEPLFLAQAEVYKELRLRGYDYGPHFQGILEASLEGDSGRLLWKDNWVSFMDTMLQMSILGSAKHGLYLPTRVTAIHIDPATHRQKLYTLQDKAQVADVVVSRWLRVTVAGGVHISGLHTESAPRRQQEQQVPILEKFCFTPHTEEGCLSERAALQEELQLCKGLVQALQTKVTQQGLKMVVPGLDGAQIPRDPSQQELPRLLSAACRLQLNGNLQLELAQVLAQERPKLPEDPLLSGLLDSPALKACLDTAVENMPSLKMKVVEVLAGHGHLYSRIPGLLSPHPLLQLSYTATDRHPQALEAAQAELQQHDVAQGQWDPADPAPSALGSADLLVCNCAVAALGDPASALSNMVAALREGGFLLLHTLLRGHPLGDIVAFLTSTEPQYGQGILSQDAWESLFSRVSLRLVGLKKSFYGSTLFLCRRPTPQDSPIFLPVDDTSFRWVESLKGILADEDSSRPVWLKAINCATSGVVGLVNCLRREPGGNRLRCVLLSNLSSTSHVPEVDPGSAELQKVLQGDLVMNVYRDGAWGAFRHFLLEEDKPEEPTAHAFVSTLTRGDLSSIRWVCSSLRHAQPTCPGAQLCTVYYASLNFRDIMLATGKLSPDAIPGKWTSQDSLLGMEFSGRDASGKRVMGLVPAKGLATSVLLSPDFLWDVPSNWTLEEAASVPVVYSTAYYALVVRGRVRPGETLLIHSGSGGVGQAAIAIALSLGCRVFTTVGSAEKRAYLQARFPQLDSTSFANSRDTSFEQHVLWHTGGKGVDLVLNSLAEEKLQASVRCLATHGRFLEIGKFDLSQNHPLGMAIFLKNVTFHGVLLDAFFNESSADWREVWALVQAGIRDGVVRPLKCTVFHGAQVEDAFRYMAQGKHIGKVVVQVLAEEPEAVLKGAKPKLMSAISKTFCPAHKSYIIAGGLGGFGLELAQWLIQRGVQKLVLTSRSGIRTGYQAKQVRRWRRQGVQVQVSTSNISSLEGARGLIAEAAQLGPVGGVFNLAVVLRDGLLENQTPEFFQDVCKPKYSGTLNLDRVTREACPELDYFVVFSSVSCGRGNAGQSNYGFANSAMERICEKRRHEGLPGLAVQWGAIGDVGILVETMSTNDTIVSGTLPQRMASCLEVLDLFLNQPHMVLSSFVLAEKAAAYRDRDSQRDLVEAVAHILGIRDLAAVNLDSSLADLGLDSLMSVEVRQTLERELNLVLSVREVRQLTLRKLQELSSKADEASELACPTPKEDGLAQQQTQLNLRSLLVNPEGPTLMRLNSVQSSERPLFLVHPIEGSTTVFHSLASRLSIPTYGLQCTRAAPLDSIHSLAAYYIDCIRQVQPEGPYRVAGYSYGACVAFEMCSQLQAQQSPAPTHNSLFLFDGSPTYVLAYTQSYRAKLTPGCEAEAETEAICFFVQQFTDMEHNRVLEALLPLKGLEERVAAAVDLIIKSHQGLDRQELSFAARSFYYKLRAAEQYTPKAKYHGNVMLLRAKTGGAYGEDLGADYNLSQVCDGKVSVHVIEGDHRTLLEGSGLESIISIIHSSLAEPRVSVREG

Compound: CC1CCN(S(=O)(=O)c2ccc3c(c2)c(=O)c(C(=O)NCc2ccco2)cn3C)CC1
- IC50 [1]: 3.81 µM (active)
- IC50 [2]: 2.4 µM (active)

Compound: O=C(Cn1nc(-c2ccco2)ccc1=O)Nc1cc(C(F)(F)F)ccc1Cl
- IC50 [1]: 11.8 µM (active)
- IC50 [2]: 13.1 µM (active)

Compound: COc1cccc(NC(=O)CN2C(=O)CSc3ccc(S(=O)(=O)N4CCC(C)CC4)cc32)c1
- IC50 [1]: 6.24 µM (active)
- IC50 [2]: 2.44 µM (active)

Compound: COC(=O)c1ccc(CSc2nc3c(c(=O)n2-c2ccc(Br)cc2)SCC3)o1
- IC50 [3]: 15.4 µM (active)
- EC50 [4]: > 53 µM (inactive)
- IC50 [5]: 7.86 µM (active)

Compound: COC(=O)c1sc(-c2ccc(C(C)(C)C)cc2)cc1NC(=O)CSCC(=O)O
- EC50 [6]: 12.1 µM (active)
- IC50 [3]: 14.1 µM (active)
- CC50 [7]: 15.7 µM (active)
- EC50 [4]: 36.8 µM (active)
- IC50 [5]: 4.1 µM (active)
- EC50 [8]: 6.69 µM (active)
- EC50 [9]: 8.94 µM (active)

Compound: CCCCc1nc2sc3c(SCCN(C)C)ncnc3c2c2c1CCC2
- CC50 [10]: 20.6 µM (active)
- AC50 [11]: 19.7 µM (active)

Compound: Nc1nonc1NC(=O)CSc1ncccc1C(=O)O
- IC50 [12]: > 50 µM (not active)

Compound: CC(C)N1CCc2c(sc(NC(=O)c3cc4cc([N+](=O)[O-])ccc4s3)c2C(N)=O)C1
- EC50 [4]: > 53 µM (inactive)
- AC50 [11]: 10.3 µM (active)

Compound: CCn1cc(C(=O)NCc2ccco2)c(=O)c2cc(S(=O)(=O)N3CCCC3)ccc21
- IC50 [13]: 1.31 µM (active)

Compound: O=C(Nc1nccs1)c1ccc2nccnc2c1
- IC50 [12]: 14.9 µM (active)

Compound: CC(C)c1ccc(S(=O)(=O)c2nnn3c2nc(NCC2CCCO2)c2ccccc23)cc1 (stereo not given)
- IC50 [1]: 1.72 µM (active)
- IC50 [2]: 1.34 µM (active)

Compound: O=[N+]([O-])c1ccc(Sc2ccccc2)nc1
- IC50 [3]: 5.42 µM (active)
- EC50 [14]: > 260 µM (inactive)
- EC50 [4]: > 53 µM (inactive)
- IC50 [5]: < 0.368 µM (active)

Compound: O=C(NCc1ccc2c(c1)OCO2)c1c(F)c(F)c(F)c(F)c1F
- IC50 [3]: 8.28 µM (active)
- EC50 [4]: > 53 µM (inactive)
- IC50 [5]: 18.7 µM (active)

Compound: CCCC(=O)n1nc(-c2ccccc2)nc1SC
- IC50 [13]: 0.935 µM (active)

Compound: Clc1cccc(-c2nnc(SC/C=C/c3ccccc3)n2Cc2ccco2)c1
- IC50 [3]: > 20 µM (inactive)
- EC50 [4]: > 53 µM (inactive)
- IC50 [5]: 4.74 µM (active)

Compound: Cc1nc(Sc2ccccc2)c(C#N)c(C)c1[N+](=O)[O-]
- IC50 [1]: 13.9 µM (active)
- IC50 [2]: 8.81 µM (active)

Compound: Cc1ccc(S(=O)(=O)c2nnn3c2nc(N2CCOCC2)c2ccccc23)c(C)c1
- IC50 [3]: > 20 µM (inactive)
- EC50 [4]: > 53 µM (inactive)
- IC50 [5]: < 0.368 µM (active)

Compound: COc1ccccc1NC(=O)c1sc2ncn(Cc3cccc(C)c3)c(=O)c2c1C
- IC50 [13]: > 50 µM (not active)

Compound: COC(=O)c1nnc(NC(=O)c2ccccc2)[nH]1
- IC50 [13]: 0.0545 µM (active)
- AC50 [15]: 3.98 µM (inconclusive)
- AC50 [16]: 17.8 µM (inconclusive)
